Earlier results on 1 compound are cited in patent publication US8536091B2, “System for protection of plants from pathogens using alkamides” (priority 2008, dated 2013).

This data set relates to microbial plant pathogens, including bacteria and fungi. Conditions: in the absence of plants; relatively high levels.

As for `C/C=C/C=C\CC/C=C/C(=O)NCC(C)C` [affinin, N-isobutyl-deca-2E,6Z,8E-trieneamide], the “in vitro growth inhibition of microbial plant pathogens” value is recorded as “inhibit the growth of some microbial plant pathogens”.
